From US20260218210A1, “ENGINEERED BACTERIA FOR CELLULAR BARRIER M[…] PROTECTION” (The Trustees of Columbia University in the City of New York, priority 2023, published 2026)

How the values were obtained:
[1] = tested on: acute DSS colitis in NFD/FDD fed mice; assay: Acute DSS colitis in mice fed fiber-deficient (no fiber) diet; type: in vivo, mouse
Description: (§1) Mice and diets C57BL/6J and Il10^−/− mice were purchased from Jackson Laboratory. Animals were purchased from maximum barrier rooms and maintained in high barrier animal rooms at Columbia University. All mice were maintained under specific-pathogen-free (SPF) conditions for the duration of the experiments. All experiments were performed under IACUC approved guidelines. To control for microbiota and cage effects, mice were shuffled between cages before the start of each experiment and randomly assigned to each group. All experiments were performed with gender and age (8-12 weeks at start of experiment) matched mice. Animals were maintained on normal diet (PicoLab Rodent Diet 20, 5053) until start of experiments and then switched to fiber-deficient diet (Teklad Custom Diet, TD.00278) or continued on ND as indicated. ND contained 21% protein, 53.4% carbohydrates, 5% fat, 5% fiber and 4 kcal/g. FDD contained 19.3% protein, 64.8% carbohydrates, 5.1% fat and no fiber, overall the diet provides 3.9 kcal/g.
(§2) DSS colitis and GLP-1 modulating therapies For induction of acute DSS colitis, between 0.5% to 6% w/v dextran sulfate sodium (DSS, colitis grade, MPbio) was supplemented in drinking water for five days. Drinking water was furthermore enriched with 2% w/v sucrose for all groups. Mice were switched to FDD seven days prior to DSS supplementation or maintained on ND during course of experiment. As indicated, FDD mice were i.p. injected with 0.1 μg/g GLP-1 receptor agonist (Exendin-4, AS-24463, AnaSpec) or 0.4 μg/g GLP-1 receptor antagonist (Exendin-9-39, AS-24467, AnaSpec) in 100 μl PBS every day starting one day before start of DSS. Additionally, mice were orally gavaged with either 10^10 CFU E. coli Nissle (EcN) or 10^10 CFU E. coli Nissle-HldSE (EcN-HldSE) every day starting one day prior to DSS supplementation. Of note, tissue samples for RNA-sequencing analysis are derived from mice either gavaged with EcN (control and GLP-1 receptor agonist groups) or EcN-HldSE (EcN-HldSE and GLP-1 receptor antagonist groups). Mice were monitored daily for changes in body weight. After five days, mice were euthanized for blood and tissue sampling.
Histological analyses The colonic tissue was carefully rinsed with PBS to remove fecal matter. Colon and small intestine was fixated in 10% formalin for >24 hours and embedded in paraffin. 5 μm section were stained with H&E, Alcian Blue and Immunohistochemistry (IHC) staining for GLP-1 (GLP-1 polyclonal antibody, PA5-79303, Invitrogen). A pathologist assessed and scored H&E stained slides for colitis grading.
Plating for liver colony forming units (CFU) For bacterial extraction from liver tissue, livers were first weighed and then transferred into sterile stainless steel microvials (Biospec #2007) containing two stainless steel beads (6.35 mm, Biospec #11079635SS) and capped with silicone rubber caps (Biospec #2008). The vials were subsequently filled with 500 μL of sterile phosphate-buffered saline (PBS), and the tubes were placed on ice to prevent bacterial growth. The samples were homogenized using a Mini-BeadBeater-16 (BioSpec) with three cycles of 30 seconds at 4° C. After extraction, the samples were diluted as needed in PBS, and 100 μL of the diluted solution was plated onto Luria-Bertani (LB) agar plates (2% agar). The plates were thoroughly dried and incubated at 37° C. overnight. Colony-forming units (CFU) were counted the following day and normalized to tissue weight.
Plasma analyses GLP-1 and pro-inflammatory cytokine measurements were performed from plasma samples. After euthanasians, blood was drawn from mice with needles coated with EDTA to stop coagulation. Blood samples were pelleted by centrifugation for 10 min at 15000 rpm at 4° C. Supernatant was transferred to a new tube, snap frozen and stored at −80° C. GLP-1 ELISA (GLP-1 Multispecies ELISA kit, BMS2194, Invitrogen) and LEGENDplex Mouse Inflammation Panel (740446, BioLegend) were performed according to manufacturer protocol. […]

[2] = tested on: acute DSS colitis in NFD/FDD fed mice; assay: as above; type: in vivo, mouse; conditions: five days DSS colitis
[3] = tested on: colon tissue gene expression; assay: RNA-sequencing of colon tissue of FDD mice during DSS colitis; type: in vivo, mouse
Description: as §2
RNA colonic transcriptomics For mRNA sequencing using the Illumina platform, total RNA was first extracted from tissue using TRItol reagent. The extracted RNA was quantified using Bioanalyzer to ensure high-quality RNA (RIN>7) for further library preparation. Poly-A mRNA was isolated using the Dynabeads™ mRNA Purification Kit (Thermo Fisher, #61006), followed by fragmentation with the NEBNext Ultra II RNA Library Prep Kit (New England Biolabs, #E7770) at 94° C. for 8 minutes. First-strand cDNA synthesis was performed using SuperScript IV Reverse Transcriptase (Thermo Fisher, #18090050), followed by second-strand cDNA synthesis. […] Libraries were validated for quality and size distribution using 2% agarose gel and enriched using size selection beads to eliminate any cDNA below 350 bp, and quantified using a Qubit 4 Fluorometer (Thermo Fisher, #Q33226). Sequencing was performed on an Illumina NextSeq550 platform using paired-end 150 bp reads high output.
Post-sequencing, FastQC (v0.11.9) was employed to assess raw read quality, evaluating metrics such as per-base sequence quality (Q30 or higher), GC content, and potential adapter contamination. […] Reads alignment and transcripts quantification of gene expression were done using Kallisto (v0.46.1) and DESeq2 (v1.30.1) was then used for differential expression analysis, incorporating normalization and variance-stabilizing transformation to account for differences in sequencing depth and library size. […]

GLP-1 release = conditions: cited from earlier work
IEL γδ (gd) T cells = assay: IEL γδ T cell IL-17A production and γδ T cell depletion in DSS colitis of NFD fed mice; type: in vivo, mouse
Description: EcN or EcN HldSE (5×10^9 CFU/mouse) was gavaged daily starting three days prior to DSS administration. gd T cells were depleted by administration of neutralizing antibodies i.p. every other day. […] EcN or EcN HldSE (5×10^9 CFU/mouse) was gavaged daily starting three days prior to DSS administration. gd T cells were depleted by administration of neutralizing antibodies i.p. every other day. N=3-5 mice/group, one experiment. […] EcN or EcN HldSE (5×10^9 CFU/mouse) was gavaged daily starting three days prior to DSS administration. gd T cells were depleted by administration of neutralizing antibodies i.p. every other day. N=3-5 mice/group, one experiment.

[4] = tested on: acute DSS colitis in NC/ND fed mice; assay: Acute DSS colitis in mice fed normal chow / normal diet; type: in vivo, mouse; conditions: five days DSS colitis
Description: as §1, §2
Plating for liver colony forming units (CFU) For bacterial extraction from liver tissue, livers were first weighed and then transferred into sterile stainless steel microvials (Biospec #2007) containing two stainless steel beads (6.35 mm, Biospec #11079635SS) and capped with silicone rubber caps (Biospec #2008). […] Colony-forming units (CFU) were counted the following day and normalized to tissue weight.
Here, mice with low fiber diets were treated with DSS for […] with or without the engineered Nissle HldSE (FIG. 3A) Treatment with Nissle HldSE improved barrier function measured based on infiltrating gut bacteria in liver (Liver CFU; FIG. 3C). […]

[5] = FDD mice, five days DSS colitis, agonist 0.1 μg/g i.p. daily or 10^10 CFU gavage daily
[6] = FDD mice, DSS colitis, EcN-HldSE treatment plus antagonist injection

Exendin-4 [GLP-1 receptor agonist]
L-cell numbers (GLP-1 staining) in colon ([1]; FDD mice during DSS colitis): increase | goblet cell numbers (Alcian Blue staining) in colon ([1]; FDD mice during DSS colitis): remained unchanged | histological colitis score ([1]; FDD mice, DSS colitis): improved | colitis outcome in dysbiotic mice ([1]; FDD mice, DSS colitis, figure headlines FIGS. 10, 11): ameliorate | circulating (pro-)inflammatory cytokines (TNF-α, IL-1α, IL-6, MCP-1) ([1]; FDD mice, five days DSS colitis, plasma): lower | colon shortening [1, 5]: less | weight loss [1, 5]: reduced | CFU levels in the liver (bacteria dissemination into the liver) [2]: significantly reduced | genes linked to ribosome biogenesis, cell cycle and DNA replication and inflammatory signaling ([3]; colon of FDD mice during colitis): downregulated | DEGs commonly upregulated in the colon with EcN-HldSE and the GLP-1 receptor agonist ([3]; colon of FDD mice, DSS colitis, versus EcN control): ~50% | genes associated with homeostasis and recovery phases (GSEA) ([3]; colon of FDD mice, acute colitis, DSS colitis time-series dataset): enrichment | genes involved in lipid metabolism, tight junctions and epithelial structure maintenance ([3]; over-representation analysis, colon of FDD mice during DSS colitis): upregulation

MAADIISTIGDLVKWIIDTVNKFKK [HldSE]
GLP-1 release in vitro (GLP-1 release): induce | IL-17A production by γδ T cells (IEL γδ (gd) T cells; IEL γδ T cells after 6 days of DSS treatment of NFD fed mice): upregulation | efficacy of the peptide after depletion of γδ T cells (IEL γδ (gd) T cells; experimental depletion of γδ T cells, NFD fed mice, DSS): notable, albeit not exhaustive, diminishment

Exendin-9-39 [GLP-1 receptor antagonist]
bacterial dissemination into the liver [4]: higher | colon shortening [4]: greater | disease severity [4]: exacerbated | weight loss [4]: more | protective effects of the engineered probiotic ([1]; FDD mice, DSS colitis, EcN-HldSE treatment plus antagonist 0.4 μg/g i.p. daily): abolished | colon length [1, 6]: shorter | level of circulating pro-inflammatory cytokines [1, 6]: elevated | number of bacteria in the liver [1, 6]: drastically increased | weight loss [1, 6]: severe
